Literature values, collected in patent publication US20110130434A1, “MODIFIED RELEASE RAMIPRIL COMPOSITIONS AND USES THEREOF” (Panacea Biotec Ltd., priority 2008, published 2011).

Key:
[1] = after oral administration of ramipril
ACE = ACE (Homo sapiens, UniProt P12821)
Sequence of ACE (P12821 30-1306, species assumed): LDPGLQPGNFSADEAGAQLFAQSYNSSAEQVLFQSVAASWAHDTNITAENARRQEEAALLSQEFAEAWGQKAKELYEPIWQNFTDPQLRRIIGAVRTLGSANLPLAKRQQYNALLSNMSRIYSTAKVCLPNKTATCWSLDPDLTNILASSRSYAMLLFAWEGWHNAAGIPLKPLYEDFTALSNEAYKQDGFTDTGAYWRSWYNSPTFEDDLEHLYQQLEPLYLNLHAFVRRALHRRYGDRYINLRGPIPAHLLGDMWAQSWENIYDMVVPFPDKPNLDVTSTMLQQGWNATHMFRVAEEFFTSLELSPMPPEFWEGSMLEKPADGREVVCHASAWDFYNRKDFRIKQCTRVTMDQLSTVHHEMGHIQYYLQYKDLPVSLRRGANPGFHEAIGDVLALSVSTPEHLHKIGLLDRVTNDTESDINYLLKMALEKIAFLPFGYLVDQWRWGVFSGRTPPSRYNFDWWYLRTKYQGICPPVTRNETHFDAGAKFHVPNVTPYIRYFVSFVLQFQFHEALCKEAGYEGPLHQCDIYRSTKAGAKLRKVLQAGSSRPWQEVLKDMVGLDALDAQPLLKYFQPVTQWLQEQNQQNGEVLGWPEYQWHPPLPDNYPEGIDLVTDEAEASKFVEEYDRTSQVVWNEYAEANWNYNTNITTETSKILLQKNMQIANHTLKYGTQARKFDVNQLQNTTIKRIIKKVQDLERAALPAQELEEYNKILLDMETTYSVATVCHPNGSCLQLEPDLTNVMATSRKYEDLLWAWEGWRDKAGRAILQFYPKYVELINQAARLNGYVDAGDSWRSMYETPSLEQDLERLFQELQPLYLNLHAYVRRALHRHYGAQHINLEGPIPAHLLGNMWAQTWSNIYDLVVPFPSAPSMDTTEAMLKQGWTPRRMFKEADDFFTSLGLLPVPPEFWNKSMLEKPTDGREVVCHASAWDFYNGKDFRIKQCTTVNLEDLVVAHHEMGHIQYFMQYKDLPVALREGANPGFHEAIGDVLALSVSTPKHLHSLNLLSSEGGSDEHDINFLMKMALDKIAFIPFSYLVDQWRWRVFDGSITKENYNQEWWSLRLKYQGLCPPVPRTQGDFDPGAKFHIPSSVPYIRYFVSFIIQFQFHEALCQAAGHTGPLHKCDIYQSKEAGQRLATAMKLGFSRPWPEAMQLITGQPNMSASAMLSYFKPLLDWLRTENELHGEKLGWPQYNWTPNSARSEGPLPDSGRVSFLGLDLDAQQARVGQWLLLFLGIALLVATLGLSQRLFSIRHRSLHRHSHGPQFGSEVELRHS

## C[C@H](N[C@@H](CCc1ccccc1)C(=O)O)C(=O)N1[C@H](C(=O)O)C[C@@H]2CCC[C@@H]21 [ramiprilat]
[1]
  half life: 13 to 17 h
ACE
  ACE inhibitory activity relative to ramipril: 6 times
